# According to patent publication US11377444B2, “Pyridopyrimidine compounds acting as mTORC 1/2 dual inhibitors” (MEDSHINE DISCOVERY INC., priority 2017, dated 2022):
# Molecular target: T1, mTOR kinase (mTORC1 and mTORC2 kinase complex) (Homo sapiens, UniProt P42345)
# T1 construct: purchased DiscoverX; host or cells: HEK-293
# Test: In vitro evaluation of mTOR kinase inhibitory activity (DiscoverX ligand-bead competition binding, qPCR readout)
# Settings: not given
# Procedure: Experimental Embodiment 1: In Vitro Evaluation of mTOR Kinase Inhibitory Activity This experiment was performed by DiscoverX. All materials and methods were obtained from DiscoverX.
# Kinase activity analysis.
# 1. Labeled mTOR kinase was stably expressed in HEK-293 cells.
# 2. Streptavidin magnetic beads were treated with biotinylated small molecule ligands at room temperature for 30 minutes to produce affinity resin for kinase analysis;
# 3. Ligand beads were blocked with excess biotin and washed with buffer (1% bovine serum albumin, […]) to remove unbound ligand and non-specifically bound ligand;
# 4. The assembly of kinase and ligand and affinity beads, and the binding reaction between the compound and the three were performed in buffer (20% blocking buffer, 0.17x phosphate buffer, 0.05% Tween […]);
# 5. The test compounds were dissolved in dimethyl sulfoxide;
# 6. All test compounds were dissolved in DMSO, and then directly diluted […]
# 7. The solution was placed in a 384-well polypropylene plate, wherein the volume of each well was 0.02 mL;
# 8. The plate was shaked for an hour at room temperature;
# 9. The plate was washed with buffer (1× PBS, 0.05% Tween 20);
# 10. The affinity beads were resuspended in buffer (1× PBS, 0.05% Tween […] non-biotin affinity ligand) and incubated at room temperature for 30 minutes;
# 11. The kinase concentration in the eluate was deteced by qPCR.
row,SMILES,Kd [nM]
1,"CNC(=O)c1cccc(-c2ccc3c(N4CCOCC4C)nc(N4CCOC5CC54)nc3n2)c1 (single isomer, unassigned) [Embodiment 18-1]",3
2,"CNC(=O)c1cccc(-c2ccc3c(N4CCOCC4C)nc(N4CCOC5CC54)nc3n2)c1 (single isomer, unassigned) [Embodiment 18-2]",0.5
3,"CNC(=O)c1cccc(-c2ccc3c(N4CCOCC4C)nc(N4CCOC5(CCSC5)C4)nc3n2)c1 (single isomer, unassigned) [Embodiment 45-1]",0.5
4,"CNC(=O)c1cccc(-c2ccc3c(N4CCOCC4C)nc(N4CCOC5(CCSC5)C4)nc3n2)c1 (single isomer, unassigned) [Embodiment 45-2]",1.7
5,"CNC(=O)c1cccc(-c2ccc3c(N4CCOCC4C)nc(N4CCOC5(CC[S+]([O-])C5)C4)nc3n2)c1 (single isomer, unassigned) [Embodiment 46-1]",1
6,"CNC(=O)c1cccc(-c2ccc3c(N4CCOCC4C)nc(N4CCOC5(CC[S+]([O-])C5)C4)nc3n2)c1 (single isomer, unassigned) [Embodiment 46-2]",4.9
7,"CNC(=O)c1cccc(-c2ccc3c(N4CCOCC4C)nc(N4CCOC5(CCS(=O)(=O)C5)C4)nc3n2)c1 (single isomer, unassigned) [Embodiment 47-1]",7.9
8,"CNC(=O)c1cccc(-c2ccc3c(N4CCOCC4C)nc(N4CCOC5(CCS(=O)(=O)C5)C4)nc3n2)c1 (single isomer, unassigned) [Embodiment 47-2]",7.9
9,"CNC(=O)c1cccc(-c2ccc3c(N4CCOCC4C)nc(N4CC5(CCOC5)OCC4C)nc3n2)c1 (single isomer, unassigned) [Embodiment 48-1]",1.8
10,"CC1COCCN1c1nc(N2CCOC3(CCOC3)C2)nc2nc(-c3cccc(C(N)=O)c3)ccc12 (single isomer, unassigned) [Embodiment 50-1]",1.9
11,"CNC(=O)c1cccc(-c2ccc3c(N4CCOCC4C)nc(N4CCOC5(CNC(=O)C5)C4)nc3n2)c1 (single isomer, unassigned) [Embodiment 53-1]",1.1
12,"CNC(=O)c1cccc(-c2ccc3c(N4CCOCC4C)nc(N4CCOC5(CNC(=O)C5)C4)nc3n2)c1 (single isomer, unassigned) [Embodiment 53-2]",1.8
13,CNC(=S)c1cccc(-c2ccc3c(N4CCOC[C@@H]4C)nc(N4CCOC5(CC5)C4)nc3n2)c1 [Embodiment 2],0.15
14,CONC(=O)c1cccc(-c2ccc3c(N4CCOC[C@@H]4C)nc(N4CCOC5(CC5)C4)nc3n2)c1 [Embodiment 3],0.32
15,C[C@H]1COCCN1c1nc(N2CCOC3(CC3)C2)nc2nc(-c3cccc(C(=O)NO)c3)ccc12 [Embodiment 4],0.22
16,CNC(=O)c1cccc(-c2ccc3c(N4CCOC[C@@H]4C)nc(C4CCC5(CC4)OCCO5)nc3n2)c1 [Embodiment 5],0.66
17,CNC(=O)c1cccc(-c2ccc3c(N4CCOC[C@@H]4C)nc(N4CC5(CCOCC5)C4)nc3n2)c1 [Embodiment 6],12
18,CNC(=O)c1cccc(-c2ccc3c(N4CCOC[C@@H]4C)nc(N4CCC5(CC4)COC5)nc3n2)c1 [Embodiment 7],6.4
19,CNC(=O)c1cccc(-c2ccc3c(N4CCOCC4C)nc(N4CCC5(CCOC5)CC4)nc3n2)c1 (stereo not shown) [Embodiment 8],5.9

row,SMILES,Kd [nM]
1,CNC(=O)c1cccc(-c2ccc3c(N4CCOCC4C)nc(N4CCC5(CC4)CC5)nc3n2)c1 (stereo not shown) [Embodiment 10],7.8
2,Nc1nc2cc(-c3ccc4c(N5C6CCC5COC6)nc(N5CCOC6(CC6)C5)nc4n3)ccc2o1 [Embodiment 11],1.2
3,C[C@H]1COCCN1c1nc(N2CCOC3(CC3)C2)nc2nc(-c3ccc4ccc(N)nc4c3)ccc12 [Embodiment 14],0.25
4,CNC(=O)c1cccc(-c2ccc3c(N4CCOC[C@@H]4C)nc(N4CCOC5(CNC5)C4)nc3n2)c1 [Embodiment 15],3.3
5,C[C@H]1COCCN1c1nc(N2CCOC3(CC3)C2)nc2nc(-c3ccc4nc(N)ncc4c3)ccc12 [Embodiment 16],1.5
6,C[C@H]1COCCN1c1nc(N2CCOC3(CC3)C2)nc2nc(-c3cccc(-c4ccn[nH]4)c3)ccc12 [Embodiment 17],3.4
7,C[C@H]1COCCN1c1nc(N2CCOC3(CC3)C2)nc2nc(-c3cccc(-c4nc[nH]n4)c3)ccc12 [Embodiment 19],3
8,CNC(=O)c1cccc(-c2ccc3c(N4CCOC[C@@H]4C)nc(N4CCOCC45CC5)nc3n2)c1 [Embodiment 20],0.97
9,C[C@H]1COCCN1c1nc(N2CCOC3(CC3)C2)nc2nc(-c3cccc(C(=O)NC(C)(C)C)c3)ccc12 [Embodiment 22],1.5
10,C[C@H]1COCCN1c1nc(N2CCOC3(CC3)C2)nc2nc(-c3ccc4cnc(N)nc4c3)ccc12 [Embodiment 25],1.4
11,CNC(=O)c1cccc(-c2ccc3c(N4CCOC[C@@H]4C)nc(N4CCOC5(CN(C)C5)C4)nc3n2)c1 [Embodiment 27],6.6
12,CNC(=O)c1cccc(-c2ccc3c(N4CCOC[C@@H]4C)nc(N4CCOC5(C4)CC(F)(F)C5)nc3n2)c1 [Embodiment 28],1.4
13,C[C@H]1COCCN1c1nc(N2CCOC3(C2)CC(F)(F)C3)nc2nc(-c3cccc(C(=O)NC4CC4)c3)ccc12 [Embodiment 29],2.7
14,CNC(=O)c1cccc(-c2ccc3c(N4CCOC[C@@H]4C)nc(N4CCCC5(C4)OCCO5)nc3n2)c1 [Embodiment 31],5
15,CNC(=O)c1cccc(-c2ccc3c(N4CCOC[C@@H]4C)nc(N4CCOC5(COC5)C4)nc3n2)c1 [Embodiment 40],0.78
16,CNC(=O)c1cccc(-c2ccc3c(N4CCOC[C@@H]4C)nc(N4CCOC5(CSC5)C4)nc3n2)c1 [Embodiment 41],0.94
17,CNC(=O)c1cccc(-c2ccc3c(N4CCOC[C@@H]4C)nc(N4CCOC5(C4)C[S+]([O-])C5)nc3n2)c1 (stereo partly shown) [Embodiment 42],0.93
18,CNC(=O)c1cccc(-c2ccc3c(N4CCOC[C@@H]4C)nc(N4CCOC5(C4)CS(=O)(=O)C5)nc3n2)c1 [Embodiment 43],12
19,CC1COCCN1c1nc(N2CCOC3(CCCC3)C2)nc2nc(-c3cccc(C(N)=O)c3)ccc12 (stereo not shown) [Embodiment 49],0.3

# Tested on: human breast cancer MCF-7 cell subcutaneous xenograft tumor
# Test: In vivo pharmacodynamic study, MCF-7 subcutaneous xenograft tumor
# Parameters: species or system BALB/c nude mouse
# Settings: 15 mg/kg
# From the text: Experimental Embodiment 4: In Vivo Pharmacodynamic Study on BALB/c Nude Mouse Model of Human Breast Cancer MCF-7 Cell Subcutaneous Xenograft Tumor
# Experimental objective: To study the efficacy of the test compounds on human breast cancer MCF-7 cell subcutaneous xenograft tumor in BALB/c nude mouse model.
# Experimental animals: Female BALB/c nude mice, 6-8 weeks old, weighing 18-22 grams; supplier: Shanghai Xipuer-Bikai Experimental Animal Co., Ltd.
# Human breast cancer MCF-7 cells (ECACC, article number: 86012803) were subjected to in vitro monolayer culture under the conditions of EMEM (EBSS)+2 mM […]+1% Non Essential Amino Acids (NEAA) medium containing 10% fetal bovine serum, 100 U/mL penicillin and 100 μg/mL streptomycin, and 37° C., 5% CO2incubator. Conventional digestion treatment was carried out with trypsin-EDTA twice a week for cell passage. When the cell saturation was 80%-90%, and the quantity reached the requirement, the cells were collected, counted and inoculated.
# Estrogen tablets (0.18 mg) were inoculated into the left back of each mouse three days before cell inoculation, 0.2 mL (1×10^7) MCF-7 cells (added with matrigel, volume ratio of 1:1) were subcutaneously inoculated into the right back of each mouse. When the average volume of tumor reached 142 mm^3, the mice were divided into groups and began to be administrated.
# The test compounds were prepared into clear solutions of 0.75 mg/mL, 1.5 mg/mL and 3 mg/mL. The vehicles were 5% DMSO+30% polyethylene glycol 300+65% water.
# The experimental indexes were used for investigating whether the growth of the tumors had been inhibited, delayed or cured. The diameters of the tumors were measured with vernier calipers twice a week. The calculation formula of the tumor volume was: V=0.5a×b^2, wherein a and b represent the long and short diameters of the tumor respectively.
# The antitumor efficacy of the compound was evaluated by TGI (%) or relative tumor proliferation rate T/C (%). TGI (%) reflects the inhibition rate of the tumor growth. Calculation of TGI (%): TGI (%)=[1−(average tumor volume at the end of administration in the treatment group−average tumor volume at the beginning of administration in the treatment group)/(average tumor volume at the end of treatment in the vehicle control group−average tumor volume at the beginning of treatment in the vehicle control group)]×[…].
# Relative tumor proliferation rate T/C (%): The calculation formula was as follows: T/C %=TRTV/CRTV at the beginning of the treatment (TRTV: treatment group RTV; CRTV: negative control group RTV). The relative tumor volume (RTV) was calculated according to the results of tumor measurement. The calculation formula was RTV=Vt/V0, wherein V0 is the average tumor volume measured during administration of the groups (i.e. d0), and Vt is the average tumor volume during a certain measurement, the TRTV and CRTV were taken on the same day.
# Statistical analysis included the mean and standard error (SEM) of tumor volume at each time point in each group. […] The comparison between two groups was analyzed by T-test, and the comparison between three or more groups was analyzed by one-way ANOVA.
SMILES,T/C [%],TGI [%]
CC1COCCN1c1nc(N2CCOC3(CCCC3)C2)nc2nc(-c3cccc(C(N)=O)c3)ccc12 (stereo not shown) [Embodiment 49],121.62,−37.89

# Same assay, conditions: 15 mg/kg, 27th day
row,SMILES,RTV (27th day)
1,CC1COCCN1c1nc(N2CCOC3(CCCC3)C2)nc2nc(-c3cccc(C(N)=O)c3)ccc12 (stereo not shown) [Embodiment 49],5.07 ± 0.92

# Same assay, conditions: 15 mg/kg, 27th day, mean ± SEM
row,SMILES,Tumor volume (27th day) [mm^3]
1,CC1COCCN1c1nc(N2CCOC3(CCCC3)C2)nc2nc(-c3cccc(C(N)=O)c3)ccc12 (stereo not shown) [Embodiment 49],759 ± 174

# Same assay, conditions: 15 mg/kg, day 0, mean ± SEM
row,SMILES,Tumor volume (day 0) [mm^3]
1,CC1COCCN1c1nc(N2CCOC3(CCCC3)C2)nc2nc(-c3cccc(C(N)=O)c3)ccc12 (stereo not shown) [Embodiment 49],144 ± 14
